Laboratory results from patent US20230143604A1, “QW DOSING OF GIP RECEPTOR AGONIST PEPTIDE COMPOUNDS AND USES THEREOF” (TAKEDA PHARMACEUTICAL COMPANY LIMITED, priority 2020, published 2023).
Read-outs that look alike come from different tables or passages of the source. Starred links: 1 amine or outer side, 2 acyl side, 3 side chain; linkers in the order of their positions; H or OH if unused. Positions of bridges follow the written chain, without caps; N, C: chain ends. Non-standard residues stand in square brackets, D forms with d. Residues, ends and D or L forms follow the SMILES beside them. Groups on a side chain read outwards from the residue. Chains are numbered I, II in the order given. *: point of attachment. C20 diacid = O=C(O)CCCCCCCCCCCCCCCCCCC(=O)*; C18 diacid = O=C(O)CCCCCCCCCCCCCCCCC(=O)*; C17 diacid = O=C(O)CCCCCCCCCCCCCCCC(=O)*; γGlu = O=C(O)[C@H](CCC(=O)[*:2])N[*:1]; NMeY = CN[C@@H](Cc1ccc(O)cc1)C(=O)O; AEEA = NCCOCCOCC(=O)O; Aib = CC(C)(N)C(=O)O

Tests used:
[1] = Dog plasma protein binding (PPB); type: in vitro ADME; settings: pH 7.4; fraction unbound; dog serum; read-out: Dog PPB (FUplasma)
Description: Dog PPB values presented below are obtained essentially as described for Human PPB samples, with the difference being that dog serum is used instead of human serum. Table 10 is provided with the values of (Fu,plasma) as fraction unbound expressed as a percentage compared to the percent bound. i.e. if the value is 0.0123, then the fraction unbound is […], which is 1.23% of the peptide is unbound and 98.77% is bound in plasma. Methods and analysis for performing the dog PPB protocol and results are the same as noted herein as for the Human PPB protocol and analysis.

[2] = Solubility in phosphate buffer pH 7.4
Procedure, shortened: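 Solubility at pH 7.4 determined by stepwise addition of 200 mM phosphate buffer in 100 μL increments to 3 mg peptide, mixing briefly each time, until no insoluble material remained, then measured by liquid chromatography.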

[3] = Human plasma protein binding (PPB); type: in vitro ADME; settings: both sexes, pH 7.4; fraction unbound; human plasma, 1000 nmol/L peptide, ultracentrifugation; read-out: Human PPB (FUplasma)
Protocol: Stock solutions: (1000 μM) of the peptides are prepared in DMSO.
Human plasma (mixed gender; containing K2-EDTA as anti-coagulant; pre-adjusted to pH 7.4—NB alternative species may be used) is spiked individually with each test peptide (1000 nmol/L), sampled for analysis and then incubated (n=4) at 37° C. in a water bath for 30 minutes. Following the incubation period, the plasma is sampled for analysis, then transferred to ultracentrifugation tubes and centrifuged (n=3) at […] and 4° C. for 3 hours, after which the supernatant is sampled for analysis. An additional aliquot of the supernatant is taken at the end of the centrifugation period to determine the total protein concentration. An aliquot of the incubated plasma will be stored at 4° C. for 3 hours and then sampled for analysis. At the point of sampling, all samples are matrix-matched, treated with ice-cold acetonitrile/methanol (4:1 (vfv)) containing internal standard, centrifuged al 2000 g and 4° C. for 10 minutes and stored prior to LC-MS/MS analysis. An appropriate positive control compound control will be incubated and centrifuged in parallel; control plasma is also centrifuged to generate samples for matrix-matching. Fraction unbound in plasma (Fuplasma) values is determined by comparison of the analyte response in plasma to the analyte response in the supernatant, determined via peak area response ratios.
The samples are analyzed by LC-MS/MS using a 6500 (or equivalent) triple quadrupole mass spectrometer (AB Sciex) coupled to an appropriate Liquid Chromatography (LC) system. Protein binding and stability values are determined via peak area ratios using multiple reaction monitoring (MRM) parameters following compound optimisation. Multiple reaction monitoring (MRM) is a highly sensitive method of targeted mass spectrometry (MS) that can be used to selectively detect and quantify peptides based on the screening of specified precursor peptide-to-fragment ion transitions.

human GLP-1R = molecular target: T1, human GLP-1R (Homo sapiens, UniProt P43220); assay: Human GLP1R agonist activity, intracellular cAMP accumulation; type: cell-based; settings: HEK-293T cells overexpressing human GLP-1R, 1 hr
T1 construct: HEK-293T cells overexpressing full-length human GLP-1R; FLAG (N); host or cells: HEK-293T
Procedure, shortened: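 cAMP accumulation is measured by HTRF after a 1 hr, room-temperature, dark exposure of thawed cells (4×10^5 cells/mL in Krebs Ringer buffer) to compound. Activity is scaled between DMSO alone as 0% and 1 nm GLP-1 as 100%.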

C57BL/6J mice = assay: Oral glucose tolerance test (OGTT); type: in vivo; settings: 3 nmol/kg s.c., 24 hours before glucose loading
Procedure, shortened: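 Peptide or vehicle given s.c. at 0.1, 0.3, 3 or 10 nmol/kg (peptide-dependent), 24 h before oral 50% dextrose at 5 ml/kg unless stated otherwise. Blood glucose read at 0, 15, 30 and 60 min. % inhibition = (1−(AUC cpd−AUC naïve)/(AUC veh−AUC naïve))×100.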

[4] = pH 7.4, aqueous buffer, pH 7.4 Phosphate Buffer - Solubility, 200 mM Phosphate buffer pH 7.4
[5] = pH 7.4, solubility in phosphate buffer at pH 7.4, 200 mM phosphate buffer pH 7.4
[6] = read-out: Human GLP1R cAMP EC50, HEK293T
[7] = Human GLP1R cAMP EC50, HEK293T (nM)

T1 sequence (P43220 24-463): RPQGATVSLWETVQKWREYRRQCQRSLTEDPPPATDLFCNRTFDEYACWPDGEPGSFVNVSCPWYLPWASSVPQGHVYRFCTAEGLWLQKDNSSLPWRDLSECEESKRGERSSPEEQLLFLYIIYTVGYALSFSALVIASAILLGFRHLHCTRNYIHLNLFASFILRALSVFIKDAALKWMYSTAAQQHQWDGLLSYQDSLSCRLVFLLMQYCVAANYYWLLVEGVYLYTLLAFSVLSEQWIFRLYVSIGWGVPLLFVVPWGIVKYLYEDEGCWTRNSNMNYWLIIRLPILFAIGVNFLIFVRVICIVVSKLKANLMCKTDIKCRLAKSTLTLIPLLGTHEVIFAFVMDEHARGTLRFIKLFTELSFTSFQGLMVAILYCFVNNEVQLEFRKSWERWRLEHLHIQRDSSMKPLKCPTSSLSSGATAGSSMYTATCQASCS

Compound	fraction unbound at 30 min, 1000 nmol/L [1]	solubility [2, 4]	solubility [2, 5]	fraction unbound at 30 min, 1000 nmol/L [3]	fraction unbound [1]	solubility ([2]; pH 7.4)	solubility ([2]; pH 7.4, aqueous buffer)	fraction unbound [3]	EC50 (human GLP-1R; [6])	Oral Glucose Tolerance Test Percent decrease in blood glucose AUC (%) over 60 mins (C57BL/6J mice)	EC50 (human GLP-1R; [7])
CC[C@H](C)[C@H](NC(=O)[C@H](Cc1ccccc1)NC(=O)[C@@H](NC(=O)CNC(=O)[C@H](CCC(=O)O)NC(=O)C(C)(C)NC(=O)[C@H](Cc1ccc(O)cc1)NC)[C@@H](C)O)C(=O)N[C@@H](CO)C(=O)N[C@@H](CC(=O)O)C(=O)N[C@@H](Cc1ccc(O)cc1)C(=O)N[C@@H](CO)C(=O)N[C@H](C(=O)NC(C)(C)C(=O)N[C@@H](CC(C)C)C(=O)N[C@@H](CC(=O)O)C(=O)N[C@@H](CCCNC(=N)N)C(=O)NC(C)(C)C(=O)N[C@@H](C)C(=O)N[C@@H](CCC(N)=O)C(=O)NC(C)(C)C(=O)N[C@@H](CCCCNC(=O)COCCOCCNC(=O)COCCOCCNC(=O)CC[C@H](NC(=O)CC[C@H](NC(=O)CCCCCCCCCCCCCCCC(=O)O)C(=O)O)C(=O)O)C(=O)N[C@@H](Cc1ccccc1)C(=O)N[C@H](C(=O)N[C@@H](CC(N)=O)C(=O)N[C@@H](Cc1c[nH]c2ccccc12)C(=O)N[C@@H](CC(C)C)C(=O)N[C@@H](CC(C)C)C(=O)N[C@@H](C)C(=O)N[C@@H](CCC(N)=O)C(=O)N[C@@H](CCCNC(=N)N)C(=O)N1CCC[C@H]1C(=O)N[C@@H](CO)C(=O)N[C@@H](CO)C(=O)NCC(=O)N[C@@H](C)C(=O)N1CCC[C@H]1C(=O)N1CCC[C@H]1C(=O)N1CCC[C@H]1C(=O)N[C@@H](CO)C(N)=O)C(C)C)[C@@H](C)CC [Compound 13] (H-[NMeY][Aib]EGTFISDYSI[Aib]LDR[Aib]AQ[Aib]K([AEEA-AEEA-γGlu-γGlu-C17 diacid])FVNWLLAQRPSSGAPPPS-NH2)	< 0.002	≥ 30 mg/mL	≥ 15 mg/mL	< 0.002							
CC[C@H](C)[C@H](NC(=O)[C@H](CO)NC(=O)[C@H](Cc1ccc(O)cc1)NC(=O)[C@H](CC(=O)O)NC(=O)[C@H](CO)NC(=O)[C@@H](NC(=O)[C@H](Cc1ccccc1)NC(=O)[C@@H](NC(=O)CNC(=O)[C@H](CCC(=O)O)NC(=O)C(C)(C)NC(=O)[C@H](Cc1ccc(O)cc1)NC)[C@@H](C)O)[C@@H](C)CC)C(=O)N[C@@H](C)C(=O)N[C@@H](CC(C)C)C(=O)N[C@@H](CC(=O)O)C(=O)N[C@@H](CCCNC(=N)N)C(=O)NC(C)(C)C(=O)N[C@@H](C)C(=O)N[C@@H](CCC(N)=O)C(=O)NC(C)(C)C(=O)N[C@@H](CCCCNC(=O)COCCOCCNC(=O)COCCOCCNC(=O)CC[C@H](NC(=O)CC[C@H](NC(=O)CCCCCCCCCCCCCCCCCCC(=O)O)C(=O)O)C(=O)O)C(=O)N[C@@H](Cc1ccccc1)C(=O)N[C@H](C(=O)N[C@@H](CC(N)=O)C(=O)N[C@@H](Cc1c[nH]c2ccccc12)C(=O)N[C@@H](CC(C)C)C(=O)N[C@@H](CC(C)C)C(=O)N[C@@H](C)C(=O)N[C@@H](CCC(N)=O)C(=O)N[C@@H](CCCCN)C(=O)NCC(=O)O)C(C)C [Compound 39] (H-[NMeY][Aib]EGTFISDYSIALDR[Aib]AQ[Aib]K([AEEA-AEEA-γGlu-γGlu-C20 diacid])FVNWLLAQKG-OH)					0.0015	≥ 15 mg/mL	≥ 30 mg/mL	0.0112			
CC[C@H](C)[C@H](NC(=O)[C@H](Cc1ccccc1)NC(=O)[C@@H](NC(=O)CNC(=O)[C@H](CCC(=O)O)NC(=O)C(C)(C)NC(=O)[C@H](Cc1ccc(O)cc1)NC)[C@@H](C)O)C(=O)N[C@@H](CO)C(=O)N[C@@H](CC(=O)O)C(=O)N[C@@H](Cc1ccc(O)cc1)C(=O)N[C@@H](CO)C(=O)N[C@H](C(=O)NC(C)(C)C(=O)N[C@@H](CCCCNC(=O)CNC(=O)CNC(=O)CNC(=O)CNC(=O)CNC(=O)CCCCCCCCCCCCCCCCC(=O)O)C(=O)N[C@@H](CC(=O)O)C(=O)N[C@@H](CCCNC(=N)N)C(=O)NC(C)(C)C(=O)N[C@@H](C)C(=O)N[C@@H](CCC(N)=O)C(=O)NC(C)(C)C(=O)N[C@@H](CC(=O)O)C(=O)N[C@@H](Cc1ccccc1)C(=O)N[C@H](C(=O)N[C@@H](CC(N)=O)C(=O)N[C@@H](Cc1c[nH]c2ccccc12)C(=O)N[C@@H](CC(C)C)C(=O)N[C@@H](CC(C)C)C(=O)N[C@@H](C)C(=O)N[C@@H](CCC(N)=O)C(=O)N[C@@H](CO)C(=O)NCC(=O)O)C(C)C)[C@@H](C)CC [Compound 53]						≥ 15 mg/mL	≥ 30 mg/mL		47.9 nM	59% (3 nmol/kg)	
CC[C@H](C)[C@H](NC(=O)[C@H](Cc1ccccc1)NC(=O)[C@@H](NC(=O)CNC(=O)[C@H](CCC(=O)O)NC(=O)C(C)(C)NC(=O)[C@H](Cc1ccc(O)cc1)NC)[C@@H](C)O)C(=O)N[C@@H](CO)C(=O)N[C@@H](CC(=O)O)C(=O)N[C@@H](Cc1ccc(O)cc1)C(=O)N[C@@H](CO)C(=O)N[C@H](C(=O)NC(C)(C)C(=O)N[C@@H](CCCCNC(=O)CNC(=O)CNC(=O)CNC(=O)CNC(=O)CNC(=O)CCCCCCCCCCCCCCCCC(=O)O)C(=O)N[C@@H](CC(=O)O)C(=O)N[C@@H](CCCNC(=N)N)C(=O)NC(C)(C)C(=O)N[C@@H](C)C(=O)N[C@@H](CCC(N)=O)C(=O)NC(C)(C)C(=O)N[C@@H](CC(=O)O)C(=O)N[C@@H](Cc1ccccc1)C(=O)N[C@H](C(=O)N[C@@H](CC(N)=O)C(=O)N[C@@H](Cc1c[nH]c2ccccc12)C(=O)N[C@@H](CC(C)C)C(=O)N[C@@H](CC(C)C)C(=O)N[C@@H](C)C(=O)N[C@@H](CCC(N)=O)C(=O)N[C@@H](CO)C(=O)N1CCC[C@H]1C(=O)N[C@@H](CO)C(=O)N[C@@H](CO)C(=O)NCC(=O)N[C@@H](C)C(=O)N1CCC[C@H]1C(=O)N1CCC[C@H]1C(=O)N1CCC[C@H]1C(=O)N[C@@H](CO)C(N)=O)C(C)C)[C@@H](C)CC [Compound 48]		≥ 30 mg/mL	≥ 15 mg/mL							87% (3 nmol/kg)	87.1 nM
I: H-[NMeY][Aib]EGTFISDYSIAKDR[Aib]AQ[Aib]DFVNWLLAQSPSSGAPPPS-OH / II: {C18 diacid}-PAPAPGG (amide I:14-II:C) [Compound 105]		≥ 60 mg/mL	≥ 15 mg/mL							82% (3 nmol/kg)	562 nM
CC[C@H](C)[C@H](NC(=O)[C@H](CO)NC(=O)[C@H](Cc1ccc(O)cc1)NC(=O)[C@H](CC(=O)O)NC(=O)[C@H](CO)NC(=O)[C@@H](NC(=O)[C@H](Cc1ccccc1)NC(=O)[C@@H](NC(=O)CNC(=O)[C@H](CCC(=O)O)NC(=O)C(C)(C)NC(=O)[C@H](Cc1ccc(O)cc1)NC)[C@@H](C)O)[C@@H](C)CC)C(=O)N[C@@H](C)C(=O)N[C@@H](CC(C)C)C(=O)N[C@@H](CC(=O)O)C(=O)N[C@@H](CCCNC(=N)N)C(=O)N[C@@H](CCCCNC(=O)CNC(=O)CNC(=O)CNC(=O)CNC(=O)CNC(=O)CCCCCCCCCCCCCCCCC(=O)O)C(=O)N[C@@H](C)C(=O)N[C@@H](CCC(N)=O)C(=O)NC(C)(C)C(=O)N[C@@H](CC(=O)O)C(=O)N[C@@H](Cc1ccccc1)C(=O)N[C@H](C(=O)N[C@@H](CCC(=O)O)C(=O)N[C@@H](Cc1c[nH]c2ccccc12)C(=O)N[C@@H](CC(C)C)C(=O)N[C@@H](CC(C)C)C(=O)N[C@@H](C)C(=O)N[C@@H](CCC(N)=O)C(=O)N[C@@H](CCCNC(=N)N)C(=O)NCC(=O)O)C(C)C [Compound 115]						≥ 15 mg/mL	≥ 30 mg/mL		40.7 nM	40% (3 nmol/kg)	
